Laboratory results as given in patent US20060069132A1, “Azolecarboxamide herbicides” (priority 2004, published 2006).

How the values were obtained:
velvetleaf = test: Test A pre-/postemergence herbicide test; assay type: in vivo, Abutilon theophrasti
Method in brief: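 Pre: seeded sandy loam, directed soil spray, compound in non-phytotoxic solvent + surfactant. Post: 1–2-leaf plants (2–10 cm), sprayed to runoff. Greenhouse ~10 d; visual injury vs untreated, 0–100 scale.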

rice = test: Test B pre-/postemergence herbicide test; assay type: in vivo, Oryza sativa; details: preemergence
Method in brief: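 Response was scored visually 13 to 15 days after treatment against untreated greenhouse controls, 0 meaning no effect and 100 complete control. Formulations (solvent mixture plus surfactant) went onto soil after planting, onto foliage of 1- to 4-leaf plants, and onto 2-leaf plants in a flooded paddy set including rice and barnyardgrass.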

large crabgrass = test: Test C pre-/postemergence herbicide test; assay type: in vivo, Digitaria sanguinalis; details: for Plant response rating, Crabgrass, Large: preemergence; for Crabgrass, Large plant response rating: Preemergence, 500 g ai/ha, scale 0 to 100, 0 no effect, 100 complete control
Method in brief: (§1)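 Visual injury scores run from 0 (no effect) to 100 (complete control), assessed relative to untreated controls 12 to 14 days after treatment in the greenhouse. Chemicals were formulated in a non-phytotoxic solvent mixture with surfactant and applied to soil after planting or to emerged plants at the 1- to 4-leaf stage.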

woolly cupgrass = test: Test C pre-/postemergence herbicide test; assay type: in vivo, Eriochloa villosa; details: for Cupgrass, Woolly plant response rating: Preemergence, 500 g ai/ha, scale 0 to 100, 0 no effect, 100 complete control
Method in brief: as §1

giant foxtail = test: Test C pre-/postemergence herbicide test; assay type: in vivo, Setaria faberi; details: for Foxtail, Giant plant response rating: Preemergence, 500 g ai/ha, scale 0 to 100, 0 no effect, 100 complete control
Method in brief: as §1

lambsquarters = test: Test C pre-/postemergence herbicide test; assay type: in vivo, Chenopodium album; details: for Lambsquarters plant response rating: Preemergence, 500 g ai/ha, scale 0 to 100, 0 no effect, 100 complete control
Method in brief: as §1

pigweed = test: Test C pre-/postemergence herbicide test; assay type: in vivo, Amaranthus retroflexus; details: for Pigweed plant response rating: Preemergence, 500 g ai/ha, scale 0 to 100, 0 no effect, 100 complete control
Method in brief: as §1

[1] = test system: common (oilseed) sunflower; test: Test C pre-/postemergence herbicide test; assay type: in vivo, Helianthus annuus; details: for Sunflower plant response rating: Preemergence, 500 g ai/ha, scale 0 to 100, 0 no effect, 100 complete control
Method in brief: as §1

[2] = Postemergence, 500 g ai/ha, 0 to 100 scale, 0 no effect, 100 complete control
[3] = Postemergence, 2000 g ai/ha, 0 to 100 scale, 0 no effect, 100 complete control
[4] = Preemergence, 2000 g ai/ha, visual rating, 0 to 100 scale (0 no effect, 100 complete control)
[5] = preemergence, 500 g ai/ha, visual injury, 0 to 100 scale (0 no effect, 100 complete control)
[6] = 500 g ai/ha, visual rating 0-100, 0 no effect, 100 complete control
[7] = 125 g ai/ha, 0 to 100 scale, 0 is no effect, 100 is complete control
[8] = 125 g ai/ha, scale 0 (no effect) to 100 (complete control), visual, 12 to 14 days
[9] = 250 g ai/ha, scale 0 to 100 (0 no effect, 100 complete control), visual, 12 to 14 days
[10] = 125 g ai/ha, scale 0 (no effect) to 100 (complete control), visual, 12 to 14 days, preemergence
[11] = 250 g ai/ha, scale 0 to 100 (0 no effect, 100 complete control), visual, 12 to 14 days, preemergence
[12] = 62 g ai/ha, preemergence, scale 0 to 100
[13] = 250 g ai/ha, scale 0-100, preemergence

Compound | Velvetleaf plant response rating (velvetleaf; [2]) | Plant response rating, Velvetleaf (velvetleaf; [3]) | Velvetleaf plant response rating (velvetleaf; [4]) | Velvetleaf plant response rating (velvetleaf; [5]) | Plant response rating, Rice (rice; [6]) | Plant response rating, Rice (rice; [7]) | Plant response rating, Crabgrass, Large (large crabgrass; [8]) | Plant response rating, Crabgrass, Large (large crabgrass; [9]) | Crabgrass, Large plant response rating (large crabgrass) | Plant response rating, Cupgrass, Woolly (woolly cupgrass; [10]) | Plant response rating, Cupgrass, Woolly (woolly cupgrass; [11]) | Cupgrass, Woolly plant response rating (woolly cupgrass) | Plant response rating, Foxtail, Giant (giant foxtail; [10]) | Foxtail, Giant plant response rating (giant foxtail) | Plant response rating, Lambsquarters (lambsquarters; [10]) | Lambsquarters plant response rating (lambsquarters) | Plant response rating, Pigweed (pigweed; [10]) | Pigweed plant response rating (pigweed) | Plant response rating, Sunflower [1, 10] | Sunflower plant response rating [1] | also measured
CCN(CC)C(=O)c1cccc(NC(=O)c2cc(C(C)(C)C)nn2CC)n1 [Compound 145] | 30 | 55 | 90 | 75 | 20 | 0 | 50 | 80 | 80 | 0 | 0 | 40 | 0 | 70 | 60 | 100 | 90 | 95 | 0 | 30 | Plant response rating (0 = no effect, 100 = complete control), Cupgrass, Woolly (woolly cupgrass; 62 g ai/ha, preemergence): 0; Plant response rating (0 = no effect, 100 = complete control), Foxtail, Giant (giant foxtail; 62 g ai/ha, preemergence): 0; Plant response rating, Foxtail, Giant (giant foxtail; [11]): 50; Plant response rating (0 = no effect, 100 = complete control), Lambsquarters (lambsquarters; 62 g ai/ha, preemergence): 20; Plant response rating (0 = no effect, 100 = complete control), Pigweed (pigweed; 62 g ai/ha, preemergence): 85; Plant response rating (0 = no effect, 100 = complete control), Sunflower ([1]; 62 g ai/ha, preemergence): 0
CCNC(=O)c1cc(C)nc(NC(=O)c2cc(C(C)(C)C)nn2CC)c1 [Compound 149] | 30 | 40 | 25 | 0 | 30 | 20 | 90 | 100 | 100 | 5 | 20 | 70 | 50 | 100 | 95 | 95 | 100 | 100 | 0 | 0 | Plant response rating, Crabgrass, Large (large crabgrass; 62 g ai/ha, scale 0 to 100): 20; Plant response rating, Cupgrass, Woolly (woolly cupgrass; [12]): 0; Plant response rating, Foxtail, Giant (giant foxtail; [12]): 0; Plant response rating, Foxtail, Giant (giant foxtail; [11]): 60; Plant response rating, Lambsquarters (lambsquarters; [12]): 75; Plant response rating, Pigweed (pigweed; [12]): 20; Plant response rating, Sunflower [1, 12]: 0
C=CCNC(=O)c1cccc(NC(=O)c2sc(C(C)(C)C)nc2C)c1 [Compound 202] | 30 | 30 | 85 | 35 | 30 |  | 95 |  | 95 | 10 |  | 60 | 40 | 100 | 90 | 100 | 100 | 100 | 0 | 10 | Rice plant response rating (0 to 100 scale) (rice; 125 g ai/ha, 0 = no effect, 100 = complete control): 10; Plant response rating, Crabgrass, Large (large crabgrass; 62 g ai/ha, scale 0 to 100): 80; Plant response rating, Crabgrass, Large (large crabgrass; 250 g ai/ha, scale 0-100): 95; Plant response rating, Cupgrass, Woolly (woolly cupgrass; [12]): 0; Plant response rating, Cupgrass, Woolly (woolly cupgrass; [13]): 20; Plant response rating, Foxtail, Giant (giant foxtail; [12]): 0; Plant response rating, Foxtail, Giant (giant foxtail; [13]): 80; Plant response rating, Lambsquarters (lambsquarters; [12]): 40; Plant response rating, Lambsquarters (lambsquarters; [13]): 100; Plant response rating, Pigweed (pigweed; [12]): 95; Plant response rating, Pigweed (pigweed; [13]): 100; Plant response rating, Sunflower [1, 12]: 0; Plant response rating, Sunflower [1, 13]: 10
